Assays:
mutant HIV PR (Mutant 8) = mutant HIV PR (Mutant 8) (Human immunodeficiency virus type 1 group M subtype B, UniProt P04585); experiment: HIV PR inhibition assay, Mutant 8; type: biochemical; conditions: read-out: Ki Mutant 8; recombinant mutant HIV PR, fluorogenic substrate, pH 6.5
Protocol: (§1) Expression and purification of WT and mutant HIV PR. Recombinant wild type and mutant HIV PRs were expressed using pET21 vector (Novagen) in E. coli cells, and purified and refolded as described previously (Gulnik et al, 1995). The cells were resuspended in 50 mM tris-HCl buffer, pH 8.0, 25 mM NaCl, 0.2% β-mercaptoethanol (buffer A), sonicated and centrifuged. Inclusion bodies were washed first with buffer A, then with buffer A containing respectively 0.1% Triton X-100, 1 M NaCl, 1 M urea, and finally with buffer A alone. Purified inclusion bodies were solubilized by addition of buffer A containing 8 M urea at room temperature. The solution was clarified by centrifugation and loaded onto 2.6×9.5 cm Q-Sepharose column. Flow-through fractions were collected and dialyzed against 3 changes of refolding buffer, which consists of 25 mM Na-phosphate, pH 7.0, 25 mM NaCl, 0.2% β-mercaptoethanol and 10% glycerol, aliquoted and stored at −80° C.
(§2) Inhibition constants were determined using the fluorogenic substrate ArgGlu(EDANS)[…]DABCYL)Arg (Amichem, USA). HIV Protease was preincubated for 0.5-1 min at ambient temperature on a 96 well plate with different concentrations of inhibitor in 0.05 M sodium phosphate buffer, pH 6.5, containing 20 mM NaCl, 2 mM DTT and 0.01% Tween-20. The reaction was initiated by the addition of substrate. Final enzyme concentration was 2-5 nM for WT and 2-30 nM for mutants. Substrate concentration was 20 uM and DMSO concentration 2%. The increase in fluorescence intensity at the emission maximum of 520 nm (excitation wavelength 340 nm, cut-off filter 495 nm) was monitored as a function of time using a Spectramax Gemini fluorescence plate reader (Molecular Devices, CA USA). The initial rate of hydrolysis was calculated by first-degree polynomial fit using SoftMAX operating software. Data were fitted to the Michaelis-Menten equation for competitive inhibitors. For tight-binding inhibitors the data were fitted by nonlinear regression analysis to the equation V=V0/2Et({[Ki(1+S/Km)+It−Et]^2+4Ki(1+S/Km)Et}^1/2−[Ki(1+S/Km)+It−Et]) (Williams and Morrison, 1979) with the program GraFit, version 5 (Erithacus Software Limited, UK), where V and V0 are initial velocities with and without inhibitor, Km is the Michaelis-Menten constant and S, Et and It are the concentrations of substrate, active enzyme and inhibitor respectively.

[1] = target: mutant HIV PR (Mutant 10) (Human immunodeficiency virus type 1 group M subtype B, UniProt P04585); experiment: HIV PR inhibition assay, Mutant 10; type: biochemical; conditions: read-out: Ki Mutant 10; recombinant mutant HIV PR, fluorogenic substrate, pH 6.5
Protocol: as §1, §2

[2] = test system: HIVmutant9 (10 mutations); experiment: Antiviral assay in MT-4 cells (MTT), mutant 9 virus; type: cell-based, HIV; conditions: Human immunodeficiency virus 1, MT4, 120 h, read-out: IC50 Mutant 9
Protocol: (§3) MT-4 cells were obtained from the AIDS Research and Reference Reagent Program (ARRRP, Division of AIDS, NIAID, NIH: MT-4 from Dr. D. Richman). Cells were propagated in RPMI 1640 supplemented with 10% fetal bovine serum, 50U of penicillin and 50 μg of streptomycin per ml (Invitrogen, Carlsbad Calif.). The following HIV viruses were used for testing of antiviral potency of compounds: WT=HIVHXB2; recombinant HIVHXB2 virus from drug resistant patient isolates; HIVmutant10 (16 mutations); HIVmutant8 (14 mutations); HIVmutant9 (10 mutations).
(§4) The potency of test compound was determined as previously described (ref 1-3) with minor modifications. MT-4 cells (1.5×10^4/ml) were exposed to 200 50 % tissue culture infective doses (TCID50) of viruses in the presence of various concentrations of test compound in 96 well microtiter plates and incubated at 37° C. for 5 days. 3-(4,5-dimethylthiazol-2-yl)-2,5-diphenytetrazolium bromide (MTT) solution was added to a final concentration of 0.75 mg/ml, and plates were incubated 1 hour. After incubation cells were dissolved in isopropanol/Triton-X 100/HCl (1000:50:25) solution. Absorbance was monitored in a microplate reader (Spectramax, Molecular Devices) at 540 nm and 690 nm. Cytotoxicity of compounds was tested in a similar assay in the absence of virus.

[3] = test system: HIVmutant8 (14 mutations); experiment: Antiviral assay in MT-4 cells (MTT), mutant 8 virus; type: cell-based, HIV; conditions: Human immunodeficiency virus 1, MT4, 120 h, read-out: IC50 Mutant 8
Protocol: as §3, §4

[4] = test system: HIVmutant10 (16 mutations); experiment: Antiviral assay in MT-4 cells (MTT), mutant 10 virus; type: cell-based, HIV; conditions: Human immunodeficiency virus 1, MT4, 120 h, read-out: IC50 Mutant 10
Protocol: as §3, §4

WT=HIVHXB2 = experiment: Antiviral assay in MT-4 cells (MTT), WT virus; type: cell-based, HIV; conditions: Human immunodeficiency virus 1, MT4, 120 h, HIVHXB2, 5 days
Protocol: as §3, §4

wild type HIV PR = target: T1, wild type HIV PR (Human immunodeficiency virus type 1 group M subtype B, UniProt P04585); experiment: HIV PR inhibition assay, wild type; type: biochemical
T1 construct: Recombinant wild type and mutant HIV PRs were expressed using pET21 vector (Novagen) in E. coli cells; made in house
Protocol: as §1, §2

mutant HIV PR (Mutant 9) = mutant HIV PR (Mutant 9) (Human immunodeficiency virus type 1 group M subtype B, UniProt P04585); experiment: HIV PR inhibition assay, Mutant 9; type: biochemical; conditions: read-out: Ki Mutant 9; recombinant mutant HIV PR, fluorogenic substrate, pH 6.5
Protocol: as §1, §2

| Compound | Ki (mutant HIV PR (Mutant 8)) [µM] | Ki [1] [µM] | IC50 [2] [µM] | IC50 [3] [µM] | IC50 [4] [µM] | IC50 (WT=HIVHXB2) [µM] | Ki (wild type HIV PR) [µM] | Ki (mutant HIV PR (Mutant 9)) [µM] |
| --- | --- | --- | --- | --- | --- | --- | --- | --- |
| CNC(C)=C1C(=O)Nc2ccc(S(=O)(=O)N(CC(C)C)CC(O)C(Cc3ccccc3)NC(=O)OC3COC4OCCC34)cc21 (centres unmarked) [Compound 41, (1-Benzyl-2-hydroxy-3-{isobutyl-[3-(1-methylamino-ethylidene)-2-oxo-2,3-dihydro-1H-indole-5-sulfonyl]-amino}-propyl)-carbamic acid hexahydro-furo[2,3-b]furan-3-yl ester] | < 0.0003 | < 0.001 | 0.017 | 0.029 | 0.056 | 0.01 | < 0.0001 | < 0.0001 |
| CCNC(C)=C1C(=O)Nc2ccc(S(=O)(=O)N(CC(C)C)CC(O)C(Cc3ccccc3)NC(=O)OC3COC4OCCC34)cc21 (centres unmarked) [Compound 43, (1-Benzyl-3-{[3-(1-ethylamino-ethylidene)-2-oxo-2,3-dihydro-1H-indole-5-sulfonyl]-isobutyl-amino}-2-hydroxy-propyl)-carbamic acid hexahydro-furo[2,3-b]furan-3-yl ester] | < 0.0003 | < 0.001 | 0.009 | 0.023 | 0.065 | 0.007 | < 0.0001 | < 0.0001 |
| CCCCNC=C1C(=O)Nc2ccc(S(=O)(=O)N(CC(C)C)CC(O)C(Cc3ccccc3)NC(=O)OC3COC4OCCC34)cc21 (centres unmarked) [Compound 57, {1-Benzyl-3-[(3-butylaminomethylene-2-oxo-2,3-dihydro-1H-indole-5-sulfonyl)-isobutyl-amino]-2-hydroxy-propyl}-carbamic acid hexahydro-furo[2,3-b]furan-3-yl ester] | < 0.0003 | < 0.001 | 0.011 | 0.025 | 0.04 | 0.013 | < 0.0001 | 0.00019 |
| CC(C)CNC=C1C(=O)Nc2ccc(S(=O)(=O)N(CC(C)C)CC(O)C(Cc3ccccc3)NC(=O)OC3COC4OCCC34)cc21 (centres unmarked) [Compound 60, (1-Benzyl-2-hydroxy-3-{isobutyl-[3-(isobutylamino-methylene)-2-oxo-2,3-dihydro-1H-indole-5-sulfonyl]-amino}-propyl)-carbamic acid hexahydro-furo[2,3-b]furan-3-yl ester] | < 0.0003 | < 0.001 | 0.0095 | 0.016 | 0.033 | 0.0075 | < 0.0001 | 0.00015 |
| CC(C)CN(CC(O)C(Cc1ccccc1)NC(=O)OC1COC2OCCC12)S(=O)(=O)c1ccc2c(c1)C(=CNCC1CCCCC1)C(=O)N2 (centres unmarked) [Compound 72, [1-Benzyl-3-({3-[(cyclohexylmethyl-amino)-methylene]-2-oxo-2,3-dihydro-1H-indole-5-sulfonyl}-isobutyl-amino)-2-hydroxy-propyl]-carbamic acid hexahydro-furo[2,3-b]furan-3-yl ester] | < 0.0003 | < 0.001 | 0.009 | 0.027 | 0.04 | 0.0097 | < 0.0001 | < 0.0001 |
| CC(C)CN(CC(O)C(Cc1ccccc1)NC(=O)OC1COC2OCCC12)S(=O)(=O)c1ccc2c(c1)C(=CNCCc1ccccn1)C(=O)N2 (centres unmarked) [Compound 76, [1-Benzyl-2-hydroxy-3-(isobutyl-{2-oxo-3-[(2-pyridin-2-yl-ethylamino)-methylene]-2,3-dihydro-1H-indole-5-sulfonyl}-amino)-propyl]-carbamic acid hexahydro-furo[2,3-b]furan-3-yl ester] | < 0.0003 | < 0.001 | 0.035 | 0.061 | 0.028 | 0.033 | < 0.0001 | < 0.0001 |
| CC(C)CN(CC(O)C(Cc1ccccc1)NC(=O)OC1COC2OCCC12)S(=O)(=O)c1ccc2c(c1)C(=CNCCCCc1ccccc1)C(=O)N2 (centres unmarked) [Compound 78, [1-Benzyl-2-hydroxy-3-(isobutyl-{2-oxo-3-[(4-phenyl-butylamino)-methylene]-2,3-dihydro-1H-indole-5-sulfonyl}-amino)-propyl]-carbamic acid hexahydro-furo[2,3-b]furan-3-yl ester] | < 0.0003 | < 0.001 | 0.017 | 0.055 | 0.105 | 0.011 | < 0.0001 | < 0.0001 |
| CC(C)CN(CC(O)C(Cc1ccccc1)NC(=O)OC1COC2OCCC12)S(=O)(=O)c1ccc2c(c1)C(=CNCC1CC1)C(=O)N2 (centres unmarked) [Compound 101] | < 0.0003 | < 0.001 | 0.022 | 0.031 | 0.055 | 0.02 | 0.00011 | 0.00019 |
| CC(C)CC(C)NC=C1C(=O)Nc2ccc(S(=O)(=O)N(CC(C)C)CC(O)C(Cc3ccccc3)NC(=O)OC3COC4OCCC34)cc21 (centres unmarked) [Compound 104] | < 0.0003 | 0.0013 | 0.016 | 0.033 | 0.074 | 0.007 | 0.00017 | 0.00025 |
| CCCN(C=C1C(=O)Nc2ccc(S(=O)(=O)N(CC(C)C)CC(O)C(Cc3ccccc3)NC(=O)OC3COC4OCCC34)cc21)CC (centres unmarked) [Compound 106] | < 0.0003 | < 0.001 | 0.02 | 0.03 | 0.06 | 0.021 | < 0.0001 | < 0.0001 |
| CC(C)CN(CC(O)C(Cc1ccccc1)NC(=O)OC1COC2OCCC12)S(=O)(=O)c1ccc2c(c1)C(=CNC1CCCCC1)C(=O)N2 (centres unmarked) [Compound 107] | < 0.0003 | 0.0012 | 0.028 | 0.039 | 0.11 | 0.013 | < 0.0001 | 0.00021 |
| CCCC(C)NC=C1C(=O)Nc2ccc(S(=O)(=O)N(CC(C)C)CC(O)C(Cc3ccccc3)NC(=O)OC3COC4OCCC34)cc21 (centres unmarked) [Compound 108] | < 0.0003 | < 0.001 | 0.015 | 0.035 | 0.08 | 0.009 | < 0.0001 | < 0.0001 |
| CCc1cccc(NC=C2C(=O)Nc3ccc(S(=O)(=O)N(CC(C)C)CC(O)C(Cc4ccccc4)NC(=O)OC4COC5OCCC45)cc32)n1 (centres unmarked) [Compound 112] | < 0.0003 | 0.0064 | 0.03 | 0.05 | 0.2 | 0.007 | < 0.0001 | 0.00017 |
